{"source": "patent US20020035097A1", "about": "“Method of preventing and treating chemotherapy-induced alopecia” (priority 1991, published 2002)", "key": {"[1]": {"test_system": "Cytoxan/Adriamycin-induced alopecia", "assay": "Cytoxan/Adriamycin combination-induced alopecia in young rats", "type": "in vivo, rat", "settings": "0.2 μg in 0.15 ml absolute ethanol topically over head and neck, pretreatment; 11 rats per group", "protocol": "Eight 4-day old Sprague Dawley rats were randomized in two groups of 4 rats each. Group I, received EGF […] s.c. on the head daily for 7 days. Group II received buffer injections and served as controls. One day after stopping EGF or buffer injections all rats received Cytoxan 25 mg/kg i.p.×1 day and Adriamycin 2.5 mg/kg i.p.×3 days. […] (FIG. 5).\n(§1) 1,25-Dihydroxyvitamin D3 was dissolved in absolute ethanol and applied topically with an applicator. Control animals were similarly treated with the same amount of ethanol. Animals were then kept individually separated for a period of three hours following which the treated area was carefully washed with soap and water and dried. Treatment was given daily beginning on day 5 after birth and ending on day 10.\nAll chemotherapies were given I.P. and started at 11 days of age. CTX, 35 mg/kg, was given for one day only. VP-16, 1.5 mg/kg, was given for three days. For CTX and ADM combination, CTX, 25 mg/kg was given for one day and ADM, 2.5 mg/kg, for three days. […] Alopecia was recorded on the tenth day from beginning chemotherapy.\nA total of 4 experiments were carried out. In the first experiment, protection from Cytoxan-induced alopecia was examined. The experimental group was pretreated with 0.2 μg of 1,25-dihydroxyvitamin D3 in 0.15 ml of absolute ethanol applied topically over the head and neck and the control group received 0.15 ml of alcohol. […] The second experiment was carried out under similar conditions to examine protection from VP-16-induced alopecia. […] The third experiment was designed to examine protection from alopecia induced by Cytoxan-Adriamycin combination. There were 11 rats in each group. […] In the fourth experiment, protection from VP-16-induced alopecia was similarly examined except that the dose of 1,25-dihydroxyvitamin D3 was reduced to 0.1 μg in 0.1 ml absolute ethanol applied topically over the head area only."}, "VP-16-induced alopecia": {"test_system": "VP-16-induced alopecia", "assay": "VP-16 (Etoposide)-induced alopecia in young rats", "type": "in vivo, rat", "protocol": "Twelve 7 day old rats were randomized in two groups. Group I was treated daily with buffer 0.1 ml s.c. for four days. The second Group was treated daily with Vitamin D3 50 μg s.c. over head for four days. After stopping the buffer or Vitamin D3 treatment, all rats received 1.5 mg/kg i.p. of VP-16 (Etoposide) daily for three days.\nas §1\nAll chemotherapies were given I.P. and started at 11 days of age. CTX, 35 mg/kg, was given for one day only. VP-16, 1.5 mg/kg, was given for three days. For CTX and ADM combination, CTX, 25 mg/kg was given for one day and ADM, 2.5 mg/kg, for three days. At these doses neither CTX nor ADM alone will produce alopecia. Alopecia was recorded on the tenth day from beginning chemotherapy.\nA total of 4 experiments were carried out. In the first experiment, protection from Cytoxan-induced alopecia was examined. The experimental group was pretreated with 0.2 μg of 1,25-dihydroxyvitamin D3 in 0.15 ml of absolute ethanol applied topically over the head and neck and the control group received 0.15 ml of alcohol. All 10 rats in the control group became totally alopecic. […] The second experiment was carried out under similar conditions to examine protection from VP-16-induced alopecia. All 10 rats in the control group developed total body alopecia. […] The third experiment was designed to examine protection from alopecia induced by Cytoxan-Adriamycin combination. There were 11 rats in each group. Six rats in the control group developed alopecia over the head and neck and 5 rats developed total body alopecia. […] In the fourth experiment, protection from VP-16-induced alopecia was similarly examined except that the dose of 1,25-dihydroxyvitamin D3 was reduced to 0.1 μg in 0.1 ml absolute ethanol applied topically over the head area only. All 10 rats in the control group became completely alopecic.\nas §1, with “RO 23-7553 (1,25 dihydroxy-16-ene-23-yne-cholecalciferol)” for “1,25-Dihydroxyvitamin D3”, “9” for “5”, “14.” for “10.”\nOn day 15 all animals received VP-16, 1.5 mg/kg i.p., for three days. Alopecia was recorded on day 25.\nThirteen rats were randomized in two groups. Experimental group, 7 rats; control group, 6 rats. The experimental group was pretreated with 1 μg of RO 23-7553 in 0.2 ml absolute ethanol applied topically over the neck and back and the control group received 0.2 ml of absolute ethanol. All six rats in the control group became totally alopecic over the neck and back."}, "Cytoxan-induced alopecia": {"test_system": "Cytoxan-induced alopecia", "assay": "Cytoxan-induced alopecia in young rats", "type": "in vivo, rat", "settings": "0.2 μg in 0.15 ml absolute ethanol topically over head and neck, pretreatment; CTX 35 mg/kg one day"}, "hair growth [2]": {"test_system": "hair growth", "assay": "Stimulation of hair regrowth on shaven backs of rats", "type": "in vivo, rat", "protocol": "The backs of nineteen 25 day old Sprague Dawley rats were shaven and randomized in two groups.\nGroup I (control 10 rats) received 0.1 ml of ethanol applied topically once daily to the shaven area for 14 days.\nGroup II (Calcitriol 9 rats) received 50 ng of 1,25-dihydroxyvitamin D3 in 0.1 ml of ethanol applied topically once daily to the shaven area for 14 days.\nOn day 15 stimulation of hair regrowth was assessed by reshaving an area 6 cm×6 cm in diameter. The hair was collected and weighed. The difference between two groups was highly statistically significant. P. value 0.003 (see Table III and FIG. 11)."}, "hair growth [3]": {"test_system": "hair growth", "assay": "Stimulation of hair regrowth on shaven backs of rats", "type": "in vivo, rat", "settings": "noted in rats during the chemotherapy-induced alopecia studies"}, "[4]": {"test_system": "EGF receptors on breast cancer cells", "settings": "literature; cited from earlier work"}, "[5]": {"test_system": "EGF receptors on a cell line established from rat calvaria", "settings": "literature; cited from earlier work"}}, "note": "Values joined by “and” are separate entries in the source; they are usually repeats but may differ in a detail not shown here. Equal entries are not always repeated. “Also recorded” adds a separate entry of the source."}
{"smiles": "C=C1/C(=C\\C=C2/CCC[C@]3(C)[C@@H]([C@H](C)CCCC(C)(C)O)CC[C@@H]23)C[C@@H](O)C[C@@H]1O", "note": "[1,25-dihydroxyvitamin D3]", "values": [{"measurement": "Protection from alopecia induced by Cytoxan-Adriamycin combination", "setting": "[1]", "value": "all rats in the experimental group were protected"}, {"measurement": "Protection from VP-16-induced alopecia", "setting": "VP-16-induced alopecia; 0.1 μg in 0.1 ml absolute ethanol topically over the head area only, pretreatment, VP-16 1.5 mg/kg for three days", "value": "protected primarily at the site of 1,25-dihydroxyvitamin D3 application; also recorded: less generalized and was more limited to the site of application"}, {"measurement": "Protection from VP-16-induced alopecia", "setting": "VP-16-induced alopecia; 0.2 μg in 0.15 ml absolute ethanol topically over head and neck, pretreatment, VP-16 1.5 mg/kg for three days", "value": "all rats in the experimental group were protected"}, {"measurement": "Extent of protection", "setting": "VP-16-induced alopecia; 0.2 μg topically over head and neck, stated for the CTX, VP-16 and CTX+ADM experiments together", "value": "not limited to the site of application but involved the entire body"}, {"measurement": "Protection from VP-16-induced alopecia", "setting": "VP-16-induced alopecia; applied topically 0.5 μg daily in 50% ethanol or DMSO", "value": "protected"}, {"measurement": "Protection from Cytoxan-induced alopecia", "setting": "Cytoxan-induced alopecia", "value": "all animals in the experimental group were protected"}, {"measurement": "Hair Weight, Mean S.E.M.", "setting": "hair growth [2]; 50 ng in 0.1 ml ethanol topically once daily for 14 days, 9 rats, day 15, P value 0.003 vs control", "value": "164 ± 13", "unit": "Mg"}, {"measurement": "Hair Weight (individual rats)", "setting": "hair growth [2]; 50 ng in 0.1 ml ethanol topically once daily to shaven area for 14 days, 6 cm×6 cm area reshaved on day 15, listed as Calcitriol", "value": "130 Mg and 177 Mg and 140 Mg and 147 Mg and 135 Mg and 202 Mg and 143 Mg and 150 Mg and 253 Mg"}, {"measurement": "Effect on hair growth", "setting": "hair growth [2]; administered topically in the rat", "value": "stimulation of hair growth"}, {"measurement": "Coat and hair in the treated area", "setting": "hair growth [3]", "value": "better coat of hair and longer hair in the treated area"}, {"measurement": "Effect on EGF receptors", "setting": "[4]", "value": "increase EGF receptors"}, {"measurement": "Effect on EGF receptors", "setting": "[5]", "value": "increase EGF receptors"}]}
